In ChEMBL document CHEMBL4229361, “A novel tetrahydroisoquinoline (THIQ) analogue induces mitochondria-dependent apoptosis” (Eur J Med Chem, 2018):

Tested on: A549
Assay: Antiproliferative activity against human A549 cells after 48 hrs by CCK-8 assay
Assay type: functional, cell-based
Conditions: A549, 48 h

| IC50 [µM] | Structure (SMILES) |
| --- | --- |
| 40.1 | COc1cc2c(cc1OC)C(C#Cc1ccccc1)NCC2 (configuration not stated) |
| 22.4 | C(#CC1NCCc2cc(OCc3ccccc3)c(OCc3ccccc3)cc21)c1ccccc1 (configuration not stated) |
